Reference: article PMC8037182, “Solvothermal Synthesis of Multiple Dihydropyrimidinones at a Time as Inhibitors of Eg5” (Molecules, 2021)

Columns and labels:
L929 cell line = test: Cytotoxicity MTS assay, L929 cell line; assay type: cell-based; details: Mus musculus, L929; MTS assay, 24 h exposure; ordinary fibroblast, not cancer cells
In short: (§1)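 Cells were seeded at 1000 per well, allowed 24 h, then exposed to compounds at final concentrations of 0.5 to 100 µM for 24 h, with 0.025% DMSO as blank. MTS reagent was added for 2 h at 37 °C and absorbance read at 490 nm. IC50 came from non-linear regression of viability against concentration.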

T24 cell line = test: Cytotoxicity MTS assay, T24 cell line; assay type: cell-based; details: for OD490 Mean / OD490 Well 1 / OD490 Well 2 / OD490 Well 3: T24 cell line;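 as to OD490 Mean: blank control wells received 0.025% DMSO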;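 as to OD490 Well 1: blank control wells received 0.025% DMSO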;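 as to OD490 Well 2: blank control wells received 0.025% DMSO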;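 as to OD490 Well 3: blank control wells received 0.025% DMSO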
In short: as §1

CCOc1ccccc1C1NC(=S)NC(C)=C1C(=O)Nc1ccc(Cl)cc1 (centres unmarked) [C9]
IC50 (L929 cell line): 86 µM
IC50 (T24 cell line; Homo sapiens, T-24, MTS assay, 24 h exposure): 103 µM
OD490 Mean (T24 cell line; 0.5μM, first assay): 1.7287
OD490 Well 1 (T24 cell line; 0.5μM, first assay): 1.7105
OD490 Well 2 (T24 cell line; 0.5μM, first assay): 1.7618
OD490 Well 3 (T24 cell line; 0.5μM, first assay): 1.7137
OD490 Mean (T24 cell line; 0.5μM, second assay): 1.6993
OD490 Well 1 (T24 cell line; 0.5μM, second assay): 1.7012
OD490 Well 2 (T24 cell line; 0.5μM, second assay): 1.6854
OD490 Well 3 (T24 cell line; 0.5μM, second assay): 1.7112
OD490 Mean (T24 cell line; 0.5μM, third assay): 1.6796
OD490 Well 1 (T24 cell line; 0.5μM, third assay): 1.7151
OD490 Well 2 (T24 cell line; 0.5μM, third assay): 1.6985
OD490 Well 3 (T24 cell line; 0.5μM, third assay): 1.6252
OD490 Mean (T24 cell line; 1μM, first assay): 1.7475
OD490 Well 1 (T24 cell line; 1μM, first assay): 1.7891
OD490 Well 2 (T24 cell line; 1μM, first assay): 1.7321
OD490 Well 3 (T24 cell line; 1μM, first assay): 1.7213
OD490 Mean (T24 cell line; 1μM, second assay): 1.6914
OD490 Well 1 (T24 cell line; 1μM, second assay): 1.6854
OD490 Well 2 (T24 cell line; 1μM, second assay): 1.6687
OD490 Well 3 (T24 cell line; 1μM, second assay): 1.7201
OD490 Mean (T24 cell line; 1μM, third assay): 1.6844
OD490 Well 1 (T24 cell line; 1μM, third assay): 1.6654
OD490 Well 2 (T24 cell line; 1μM, third assay): 1.6854
OD490 Well 3 (T24 cell line; 1μM, third assay): 1.7023
OD490 Mean (T24 cell line; 10μM, first assay): 1.7610
OD490 Well 1 (T24 cell line; 10μM, first assay): 1.7529
OD490 Well 2 (T24 cell line; 10μM, first assay): 1.7204
OD490 Well 3 (T24 cell line; 10μM, first assay): 1.8096
OD490 Mean (T24 cell line; 10μM, second assay): 1.6914
OD490 Well 1 (T24 cell line; 10μM, second assay): 1.6952
OD490 Well 2 (T24 cell line; 10μM, second assay): 1.7032
OD490 Well 3 (T24 cell line; 10μM, second assay): 1.6758
OD490 Mean (T24 cell line; 10μM, third assay): 1.6899
OD490 Well 1 (T24 cell line; 10μM, third assay): 1.6523
OD490 Well 2 (T24 cell line; 10μM, third assay): 1.6854
OD490 Well 3 (T24 cell line; 10μM, third assay): 1.7320
OD490 Mean (T24 cell line; 25μM, first assay): 1.6722
OD490 Well 1 (T24 cell line; 25μM, first assay): 1.6737
OD490 Well 2 (T24 cell line; 25μM, first assay): 1.6555
OD490 Well 3 (T24 cell line; 25μM, first assay): 1.6875
OD490 Mean (T24 cell line; 25μM, second assay): 1.5562
OD490 Well 1 (T24 cell line; 25μM, second assay): 1.5784
OD490 Well 2 (T24 cell line; 25μM, second assay): 1.5687
OD490 Well 3 (T24 cell line; 25μM, second assay): 1.5214
OD490 Mean (T24 cell line; 25μM, third assay): 1.5261
OD490 Well 1 (T24 cell line; 25μM, third assay): 1.5255
OD490 Well 2 (T24 cell line; 25μM, third assay): 1.4895
OD490 Well 3 (T24 cell line; 25μM, third assay): 1.5632
OD490 Mean (T24 cell line; 50μM, first assay): 1.4241
OD490 Well 1 (T24 cell line; 50μM, first assay): 1.3950
OD490 Well 2 (T24 cell line; 50μM, first assay): 1.4682
OD490 Well 3 (T24 cell line; 50μM, first assay): 1.4091
OD490 Mean (T24 cell line; 50μM, second assay): 1.2984
OD490 Well 1 (T24 cell line; 50μM, second assay): 1.3242
OD490 Well 2 (T24 cell line; 50μM, second assay): 1.3021
OD490 Well 3 (T24 cell line; 50μM, second assay): 1.2688
OD490 Mean (T24 cell line; 50μM, third assay): 1.2717
OD490 Well 1 (T24 cell line; 50μM, third assay): 1.2854
OD490 Well 2 (T24 cell line; 50μM, third assay): 1.2312
OD490 Well 3 (T24 cell line; 50μM, third assay): 1.2985
OD490 Mean (T24 cell line; 100μM, first assay): 1.1300
OD490 Well 1 (T24 cell line; 100μM, first assay): 1.1347
OD490 Well 2 (T24 cell line; 100μM, first assay): 1.0869
OD490 Well 3 (T24 cell line; 100μM, first assay): 1.1684
OD490 Mean (T24 cell line; 100μM, second assay): 1.0488
OD490 Well 1 (T24 cell line; 100μM, second assay): 1.1133
OD490 Well 2 (T24 cell line; 100μM, second assay): 1.0101
OD490 Well 3 (T24 cell line; 100μM, second assay): 1.0230
OD490 Mean (T24 cell line; 100μM, third assay): 1.0526
OD490 Well 1 (T24 cell line; 100μM, third assay): 1.0120
OD490 Well 2 (T24 cell line; 100μM, third assay): 1.1123
OD490 Well 3 (T24 cell line; 100μM, third assay): 1.0334
